Reference: paper PMC8197425, “ATP regulates RNA‐driven cold inducible RNA binding protein phase separation” (Protein Science : A Publication of the Protein Society, 2021)

target: T1, CIRBP (Homo sapiens, UniProt Q14011); assay: 1H-15N HSQC NMR titration; assay type: binding; settings: not given
T1 construct: full length (1-172), wild type; His6-protein A tag removed by TEV protease; E. coli BL21-DE3 Star; 15N-labelled
T1 sequence (Q14011 1-172): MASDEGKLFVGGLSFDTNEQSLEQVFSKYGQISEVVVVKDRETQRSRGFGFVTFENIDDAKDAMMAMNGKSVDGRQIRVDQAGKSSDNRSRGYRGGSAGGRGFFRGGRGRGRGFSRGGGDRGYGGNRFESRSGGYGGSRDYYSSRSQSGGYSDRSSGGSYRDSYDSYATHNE
Source text: 1H-15N HSQC NMR titration on CIRBP | ATP binding to CIRBP is in the fast exchange regime with an associated KD

Row | SMILES | Kd
1 | Nc1ncnc2c1ncn2[C@@H]1O[C@H](COP(=O)(O)OP(=O)(O)OP(=O)(O)O)[C@@H](O)[C@H]1O [ATP] | 2.9 ± 1.4 mM

target: T1, CIRBP; assay: 1H-15N HSQC NMR chemical shift perturbation; assay type: binding; settings: 17 μM 15N-CIRBP; 10 mM ligand; 50 mM sodium phosphate, 150 mM NaCl, pH 6.5, 298 K; RRM and RG/RGG region

Row | SMILES | 1H-15N HSQC NMR chemical shift perturbation
2 | NC(=O)c1ccc[n+]([C@@H]2O[C@H](COP(=O)(O)OP(=O)(O)OC[C@H]3O[C@@H](n4cnc5c(N)ncnc54)[C@H](O)[C@@H]3O)[C@@H](O)[C@H]2O)c1 [NAD+] | ADP and NAD^+ showed binding to CIRBP (Figure 2a,c)
3 | NC(=O)C1=CN([C@@H]2O[C@H](COP(=O)(O)OP(=O)(O)OC[C@H]3O[C@@H](n4cnc5c(N)ncnc54)[C@H](OP(=O)(O)O)[C@@H]3O)[C@@H](O)[C@H]2O)C=CC1 [NADPH] | dinucleotides (NADH, NADP^+ and NADPH) showed significant binding to CIRBP
4 | Nc1ncnc2c1ncn2[C@@H]1O[C@H](COP(=O)(O)O)[C@@H](O)[C@H]1O [AMP] | the other tested nucleotides (ATP, AMP)
5 | Nc1ncnc2c1ncn2[C@@H]1O[C@H](COP(=O)(O)OP(=O)(O)O)[C@@H](O)[C@H]1O [ADP] | ADP and NAD^+ showed binding to CIRBP (Figure 2a,c)
6 | NC(=O)C1=CN([C@@H]2O[C@H](COP(=O)(O)OP(=O)(O)OC[C@H]3O[C@@H](n4cnc5c(N)ncnc54)[C@H](O)[C@@H]3O)[C@@H](O)[C@H]2O)C=CC1 [NADH] | dinucleotides (NADH, NADP^+ and NADPH) showed significant binding to CIRBP
